Test system: SEM cells
Assay: cell viability relative to DMSO control; higher = less cytotoxic
Conditions: 48 h
In short: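 Viability was expressed as a per-plate percentage of DMSO wells, with cell-free wells as background. Leukemia cells (NOMO1 or SEM at 500 cells/well, P12-Ichikawa at 1000 cells/well) were adapted for at least four passages in each medium and seeded in 1536-well plates (5 μl). Library compounds in DMSO were pin-dosed over an 11-point threefold series from 47 μM to 0.79 nM, and CellTiter-Glo One luminescence was read after 48 h at 37°C.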

[1] = HPLM + 10% dialyzed FBS, 0.000781 µM
[2] = HPLM + 10% dialyzed FBS, 0.00234 µM
[3] = HPLM + 10% dialyzed FBS, 0.00702 µM
[4] = HPLM + 10% dialyzed FBS, 0.0211 µM
[5] = HPLM + 10% dialyzed FBS, 0.0632 µM
[6] = HPLM + 10% dialyzed FBS, 0.19 µM
[7] = HPLM + 10% dialyzed FBS, 0.569 µM
[8] = HPLM + 10% dialyzed FBS, 1.71 µM
[9] = HPLM + 10% dialyzed FBS, 5.12 µM
[10] = HPLM + 10% dialyzed FBS, 15.4 µM
[11] = HPLM + 10% dialyzed FBS, 46.1 µM
[12] = RPMI 5 mM glucose + 10% FBS, 0.000781 µM
[13] = RPMI 5 mM glucose + 10% FBS, 0.00234 µM
[14] = RPMI 5 mM glucose + 10% FBS, 0.00702 µM
[15] = RPMI 5 mM glucose + 10% FBS, 0.0211 µM
[16] = RPMI 5 mM glucose + 10% FBS, 0.0632 µM
[17] = RPMI 5 mM glucose + 10% FBS, 0.19 µM
[18] = RPMI 5 mM glucose + 10% FBS, 0.569 µM
[19] = RPMI 5 mM glucose + 10% FBS, 1.71 µM
[20] = RPMI 5 mM glucose + 10% FBS, 5.12 µM
[21] = RPMI 5 mM glucose + 10% FBS, 15.4 µM
[22] = RPMI 5 mM glucose + 10% FBS, 46.1 µM
[23] = RPMI 5 mM glucose + 10% dialyzed FBS, 0.000781 µM
[24] = RPMI 5 mM glucose + 10% dialyzed FBS, 0.00234 µM
[25] = RPMI 5 mM glucose + 10% dialyzed FBS, 0.00702 µM
[26] = RPMI 5 mM glucose + 10% dialyzed FBS, 0.0211 µM
[27] = RPMI 5 mM glucose + 10% dialyzed FBS, 0.0632 µM
[28] = RPMI 5 mM glucose + 10% dialyzed FBS, 0.19 µM
[29] = RPMI 5 mM glucose + 10% dialyzed FBS, 0.569 µM
[30] = RPMI 5 mM glucose + 10% dialyzed FBS, 1.71 µM
[31] = RPMI 5 mM glucose + 10% dialyzed FBS, 5.12 µM
[32] = RPMI 5 mM glucose + 10% dialyzed FBS, 15.4 µM
[33] = RPMI 5 mM glucose + 10% dialyzed FBS, 46.1 µM

Structure (SMILES)	cell viability [1] [%]	cell viability [2] [%]	cell viability [3] [%]	cell viability [4] [%]	cell viability [5] [%]	cell viability [6] [%]	cell viability [7] [%]	cell viability [8] [%]	cell viability [9] [%]	cell viability [10] [%]	cell viability [11] [%]	cell viability [12] [%]	cell viability [13] [%]	cell viability [14] [%]	cell viability [15] [%]	cell viability [16] [%]	cell viability [17] [%]	cell viability [18] [%]	cell viability [19] [%]	cell viability [20] [%]	cell viability [21] [%]	cell viability [22] [%]	cell viability [23] [%]	cell viability [24] [%]	cell viability [25] [%]	cell viability [26] [%]	cell viability [27] [%]	cell viability [28] [%]	cell viability [29] [%]	cell viability [30] [%]	cell viability [31] [%]	cell viability [32] [%]	cell viability [33] [%]
CCC(=O)NC[C@H](Cc1ccc(OCCc2nc(-c3ccccc3)oc2C)cc1)N/C(C)=C\C(=O)c1ccc(C(F)(F)F)cc1	68.8	106	104	88.3	91	109	4.25	81.6	82.6	50.4	49.3	83.1	97.2	120	105	98	120	4.86	83.4	99.4	51.9	67.2	60.2	97.7	113	118	120	109	5.19	93	94.5	43.9	65.5
Nc1cc(N2CCCCC2)nc(N)[n+]1[O-]	98.9	122	115	112	124	120	121	75.6	124	61.5	127	100	125	108	110	106	116	121	78.9	122	58.2	120	115	132	114	116	120	129	108	79.8	135	83.9	133
O=C(Nc1cccnc1)N1CCC(Cc2cccc(Oc3ccc(C(F)(F)F)cn3)c2)CC1	42	94.2	83.5	95.1	117	88.7	94.3	69.6	49.3	11.2	9	46.8	92.7	81.5	89.8	100	88.4	64.9	57.1	35.8	6.35	4.68	37.7	91.2	81.1	78.1	98.4	91.1	86.9	58.1	34.7	14.4	8.02
Cc1nc(-c2ccc(-c3ccc(C(=O)N4CCc5cc6c(cc54)C4(CCN(C)CC4)CO6)cc3)c(C)c2)no1	88.4	104	108	106	119	97.4	114	108	117	136	123	114	102	107	105	99.3	112	114	101	117	107	113	108	99.7	103	95.4	92.5	96	104	96.5	92.8	100	103
CN1CCN(CC1)C2=CC3=C([NH]C(=N3)C/4=C(\N)C5=C(F)C=CC=C5NC4=O)C=C2	39.9	48.9	44.5	45.4	31	46.1	36.6	26.5	21.4	17.3	5.83	52.6	65.8	50	54.7	37.4	44.5	36.2	25.6	19.5	9.89	8.79	40.7	58.3	43.3	41.6	31.2	34.6	32.7	27.2	19.8	10.5	5.75
COCCCC/C(=N\OCCN)c1ccc(C(F)(F)F)cc1	86.4	100	75.7	80.8	92	76.1	83.9	96.9	75.4	77	28.1	94.3	86.1	79.7	94.5	92.7	85.9	87.2	92	74.6	73.7	35.6	105	103	88.7	95.8	111	100	91.6	106	99.4	93.1	52.3
CCC(=O)O[C@@]1(CC[C@H]2[C@@H]3CCC/4=C/C(=O)CC[C@]4(C)[C@H]3CC[C@]12C)C(=O)CO	95.3	100	101	110	109	98.8	86.7	57.4	46.1	27.3	23.7	63.3	83.6	86	84	84.8	76.1	51	35.3	24.3	14.1	12.7	95.1	103	99.9	88.5	98	91.7	79.7	47.2	27.6	19.5	13.8
Cc1ccc(C(=O)Nc2ccc([S+](=O)([O-])O)c3cc([S+](=O)([O-])O)cc([S+](=O)([O-])O)c23)cc1NC(=O)c1cccc(NC(=O)Nc2cccc(C(=O)Nc3cc(C(=O)Nc4ccc([S+](=O)([O-])O)c5cc([S+](=O)([O-])O)cc([S+](=O)([O-])O)c45)ccc3C)c2)c1	96.8	105	96.2	100	115	91.4	101	93.8	68.5	44.4	33.1	109	128	120	121	113	112	100	115	52.7	21.2	22.7	85	97.2	100	88.6	98.4	86	94.9	86.5	55.1	23.9	23.7
N#Cc1c(N(CC(=O)[O-])CC(=O)[O-])sc(C(=O)[O-])c1CC(=O)[O-].O.O.O.O.O.O.O.[Sr+2].[Sr+2]	111	113	122	111	117	130	127	132	144	103	87.9	117	124	131	138	149	146	153	132	143	124	102	111	107	123	121	129	131	134	128	112	89.3	67.9
CCN(CC)CCCC(C)Nc1ccnc2cc(Cl)ccc12 (centres undefined)	108	113	116	121	122	128	116	117	134	127	102	102	117	119	104	109	111	100	129	118	106	94.4	105	98.6	103	103	99.9	115	109	129	104	87	92.4
Cc1n[nH]c2ccc(-c3cncc(OC[C@@H](N)Cc4ccccc4)c3)cc12	117	124	117	108	123	98.2	71.6	56.3	14.5	5.34	4.07	105	105	116	110	102	98	92.7	64	7.19	4.27	3.39											
CC(C)(Sc1cc(C(C)(C)C)c(O)c(C(C)(C)C)c1)Sc1cc(C(C)(C)C)c(O)c(C(C)(C)C)c1	73.2	89.8	60	90.9	91.2	91.9	84.2	81.4	46.4	89.1	90	90	94.6	67	96.1	80.7	103	91.3	84.1	49.1	95.4	105	79	81.5	76.7	97.7	86.1	94.5	90.2	89.3	54.4	89.1	104
N#CC1(c2cccc(C(=O)Nc3cc(Oc4ccc5nc(NC(=O)C6CC6)sc5n4)ccc3F)c2Cl)CC1	93.5	95.8	106	93.9	117	118	102	94.9	82.1	46.7	30.6	75.1	89	90.5	74.5	84.1	68.2	74.5	59.1	39.4	17.4	17.6	101	106	106	105	105	102	108	83.2	69.6	37.1	26.3
Cc1nnc(C(=O)NC(C)(C)c2nc(C(=O)NCc3ccc(F)cc3)c(O)c(=O)n2C)o1	107	111	116	102	101	123	113	108	104	108	107	96.7	101	99.2	120	125	93.8	107	80.8	90.9	97	111	105	106	109	122	109	117	107	109	93.9	98.9	110
COc1cc(N2CCN(C)CC2)ccc1Nc1nc(N)c(C(=O)c2c(Cl)cccc2Cl)s1	109	118	124	111	108	116	111	93.7	88.9	78.4	24.5	118	121	117	108	101	109	105	110	85.7	68.4	3.88	112	105	122	116	116	114	110	106	122	85.7	13.3
